Laboratory results taken from US12721844B2, “Chronic kidney disease treatment or prevention method” (Japan Tobacco Inc., priority 2019, dated 2026).
Where “and” joins values, the source holds several entries; their conditions need not be identical. Equal entries are not always repeated.

How the values were obtained:
Type in all cases: cell-based
[1] = system: Salmonella typhimurium TA98; assay: Ames test (reverse mutation test), TA98; settings: with S9 mix
Text: (§1) Ames Test (Reverse Mutation Test)
(§2) Two plates per treatment were used.

[2] = system: Salmonella typhimurium TA100; assay: Ames test (reverse mutation test), TA100; settings: with S9 mix
Text: as §1, §2

[3] = system: Salmonella typhimurium TA1535; assay: Ames test (reverse mutation test), TA1535
Text: as §1, §2

[4] = system: Salmonella typhimurium TA1537; assay: Ames test (reverse mutation test), TA1537
Text: as §1, §2

[5] = system: Salmonella typhimurium (TA98, TA1537, TA100, and TA1535) and Escherichia coli (WP2 uvrA); assay: Ames test (reverse mutation test), all bacterial tester strains; settings: any of the bacterial tester strains, with and/or without S9 mix
Text: as §1, §2

[6] = system: Escherichia coli WP2 uvrA; assay: Ames test (reverse mutation test), WP2 uvrA; settings: for Number of revertant colonies WP2uvrA: S9 Mix −
Text: as §1, §2

[7] = with S9 mix, dose 1667 μg/plate
[8] = with S9 mix, dose 5000 μg/plate

Row | SMILES | potential to induce reverse mutations, TA98 [1] | potential to induce reverse mutations, TA100 [2] | Number of revertant colonies TA1535 ([3]; S9 Mix −, 2.3 μg/plate) | Number of revertant colonies TA1535 ([3]; S9 Mix −, 6.9 μg/plate) | Number of revertant colonies TA1535 ([3]; S9 Mix −, 21 μg/plate) | Number of revertant colonies TA1535 ([3]; S9 Mix −, 62 μg/plate) | Number of revertant colonies TA1535 ([3]; S9 Mix −, 185 μg/plate) | Number of revertant colonies TA1535 ([3]; S9 Mix −, 556 μg/plate) | Number of revertant colonies TA1535 ([3]; S9 Mix −, 1667 μg/plate) | Number of revertant colonies TA1535 ([3]; S9 Mix −, 5000 μg/plate) | Number of revertant colonies TA1535 ([3]; S9 Mix +, 2.3 μg/plate) | Number of revertant colonies TA1535 ([3]; S9 Mix +, 6.9 μg/plate) | Number of revertant colonies TA1535 ([3]; S9 Mix +, 21 μg/plate) | Number of revertant colonies TA1535 ([3]; S9 Mix +, 62 μg/plate) | Number of revertant colonies TA1535 ([3]; S9 Mix +, 185 μg/plate) | Number of revertant colonies TA1535 ([3]; S9 Mix +, 556 μg/plate) | Number of revertant colonies TA1535 ([3]; S9 Mix +, 1667 μg/plate) | Number of revertant colonies TA1535 ([3]; S9 Mix +, 5000 μg/plate) | potential to induce reverse mutations, TA1537 ([4]; with S9 mix) | also measured
1 | CC(C)(C)Oc1cccc(-c2cc(N)nn2-c2ccccc2)c1 [Metabolite C] | showed potential to induce reverse mutations | showed potential to induce reverse mutations | 6 | 5 | 6 | 3 | 4 | 0 | 1 | 0 | – | – | – | – | – | – | – | – | – | Number of revertant colonies TA1535 ([3]; with S9 mix, dose 2.3 μg/plate): 8; Number of revertant colonies TA1535 ([3]; with S9 mix, dose 6.9 μg/plate): 8; Number of revertant colonies TA1535 ([3]; with S9 mix, dose 21 μg/plate): 5; Number of revertant colonies TA1535 ([3]; with S9 mix, dose 62 μg/plate): 4; Number of revertant colonies TA1535 ([3]; with S9 mix, dose 185 μg/plate): 5; Number of revertant colonies TA1535 ([3]; with S9 mix, dose 556 μg/plate): 4; Number of revertant colonies TA1535 [3, 7]: 5; Number of revertant colonies TA1535 [3, 8]: 4; Number of revertant colonies TA1537 ([4]; with S9 mix, dose 2.3 μg/plate): 6; Number of revertant colonies TA1537 ([4]; with S9 mix, dose 6.9 μg/plate): 7; Number of revertant colonies TA1537 ([4]; with S9 mix, dose 21 μg/plate): 7; Number of revertant colonies TA1537 ([4]; with S9 mix, dose 62 μg/plate): 9; Number of revertant colonies TA1537 ([4]; with S9 mix, dose 185 μg/plate): 9; Number of revertant colonies TA1537 ([4]; with S9 mix, dose 556 μg/plate): 4; Number of revertant colonies TA1537 [4, 7]: 4; Number of revertant colonies TA1537 [4, 8]: 5
2 | CC(C)(C)Oc1cc(F)cc(-c2cc(N)nn2C(F)(F)F)c1 [Metabolite 1] | – | – | – | – | – | – | – | – | – | – | – | – | – | – | – | – | – | – | – | potential to induce reverse mutations [5]: did not show potential to induce reverse mutations; Number of revertant colonies TA1535 ([3]; with S9 mix, dose 2.3 μg/plate): 13; Number of revertant colonies TA1535 ([3]; with S9 mix, dose 6.9 μg/plate): 7; Number of revertant colonies TA1535 ([3]; with S9 mix, dose 21 μg/plate): 6; Number of revertant colonies TA1535 ([3]; with S9 mix, dose 62 μg/plate): 8; Number of revertant colonies TA1535 ([3]; with S9 mix, dose 185 μg/plate): 5; Number of revertant colonies TA1535 ([3]; with S9 mix, dose 556 μg/plate): 4; Number of revertant colonies TA1535 [3, 7]: 4; Number of revertant colonies TA1535 [3, 8]: 2; Number of revertant colonies TA1535 ([3]; without S9 mix, dose 2.3 μg/plate): 6; Number of revertant colonies TA1535 ([3]; without S9 mix, dose 6.9 μg/plate): 9; Number of revertant colonies TA1535 ([3]; without S9 mix, dose 21 μg/plate): 8; Number of revertant colonies TA1535 ([3]; without S9 mix, dose 62 μg/plate): 8; Number of revertant colonies TA1535 ([3]; without S9 mix, dose 185 μg/plate): 0; Number of revertant colonies TA1535 ([3]; without S9 mix, dose 556 μg/plate): 0; Number of revertant colonies TA1535 ([3]; without S9 mix, dose 1667 μg/plate): 0; Number of revertant colonies TA1535 ([3]; without S9 mix, dose 5000 μg/plate): 0
3 | Cl.Nc1c2ccccc2nc2ccccc12.O [Example 9AA, 9-Aminoacridine hydrochloride monohydrate, reference compound] | – | – | – | – | – | – | – | – | – | – | – | – | – | – | – | – | – | – | – | Number of revertant colonies TA1537 ([4]; without S9 mix, dose 80 μg/plate (positive control)): 372
4 | Nc1cc(-c2cccc(OC(F)(F)F)c2)n(-c2cccc(F)c2)n1 [Metabolite G] | – | showed potential to induce reverse mutations | 15 | 16 | 21 | 9 | 9 | 0 | 0 | 0 | 12 | 14 | 11 | 8 | 5 | 5 | 4 | 4 | – | Number of revertant colonies WP2uvrA ([6]; 2.3 μg/plate): 26; Number of revertant colonies WP2uvrA ([6]; 6.9 μg/plate): 23; Number of revertant colonies WP2uvrA ([6]; 21 μg/plate): 16; Number of revertant colonies WP2uvrA ([6]; 62 μg/plate): 14; Number of revertant colonies WP2uvrA ([6]; 185 μg/plate): 15; Number of revertant colonies WP2uvrA ([6]; 556 μg/plate): 10; Number of revertant colonies WP2uvrA ([6]; 1667 μg/plate): 17; Number of revertant colonies WP2uvrA ([6]; 5000 μg/plate): 6; potential to induce reverse mutations, TA1535 ([3]; without S9 mix): showed potential to induce reverse mutations
5 | NC(=O)C(=Cc1ccc([N+](=O)[O-])o1)c1ccco1 [AF-2, 2-(2-Furyl)-3-(5-nitro-2-furyl)acrylamide, reference compound] | – | – | – | – | – | – | – | – | – | – | – | – | – | – | – | – | – | – | – | Number of revertant colonies WP2uvrA ([6]; 0.01 μg/plate): 74 and 89 and 100 and 87 and 79
6 | Nc1ccc2cc3ccccc3cc2c1 [Example 2AA, 2-Aminoanthracene, reference compound] | – | – | – | – | – | – | – | – | – | – | – | – | – | – | – | – | – | – | – | Number of revertant colonies TA98 ([1]; dose 0.5 μg/plate (positive control)): 289; Number of revertant colonies TA1535 ([3]; S9 Mix +, 2.0 μg/plate): 332 and 308 and 331 and 261 and 349; Number of revertant colonies TA1535 ([3]; with S9 mix, dose 2.0 (2) μg/plate (positive control)): 223 and 146 and 250; Number of revertant colonies TA1537 ([4]; with S9 mix, dose 2 μg/plate (positive control)): 135
7 | Nc1cc(-c2cccc(OCC(F)(F)F)c2)n(-c2ccc(F)cc2)n1 [Metabolite E] | showed potential to induce reverse mutations | showed potential to induce reverse mutations | 10 | 18 | 12 | 15 | 6 | 0 | 0 | 0 | 18 | 32 | 20 | 21 | 15 | 7 | 0 | 0 | showed potential to induce reverse mutations | Number of revertant colonies WP2uvrA ([6]; 2.3 μg/plate): 20; Number of revertant colonies WP2uvrA ([6]; 6.9 μg/plate): 26; Number of revertant colonies WP2uvrA ([6]; 21 μg/plate): 24; Number of revertant colonies WP2uvrA ([6]; 62 μg/plate): 27; Number of revertant colonies WP2uvrA ([6]; 185 μg/plate): 22; Number of revertant colonies WP2uvrA ([6]; 556 μg/plate): 10; Number of revertant colonies WP2uvrA ([6]; 1667 μg/plate): 15; Number of revertant colonies WP2uvrA ([6]; 5000 μg/plate): 7; potential to induce reverse mutations, TA1535 ([3]; with S9 mix): showed potential to induce reverse mutations; potential to induce reverse mutations, TA1537 ([4]; without S9 mix): showed potential to induce reverse mutations
8 | Cc1ccc(-n2nc(N)cc2-c2cccc(OCC(F)(F)F)c2)cc1 [Metabolite F] | showed potential to induce reverse mutations | showed potential to induce reverse mutations | 17 | 13 | 19 | 11 | 3 | 0 | 0 | 0 | 22 | 21 | 20 | 23 | 13 | 7 | 0 | 0 | showed potential to induce reverse mutations | potential to induce reverse mutations, WP2 uvrA ([6]; without S9 mix): showed potential to induce reverse mutations
9 | Cc1cccc(-n2nc(N)cc2-c2cccc(OC(F)(F)F)c2)c1 [Metabolite H] | showed potential to induce reverse mutations | showed potential to induce reverse mutations | 12 | 17 | 18 | 14 | 14 | 6 | 6 | 4 | 11 | 14 | 19 | 15 | 13 | 6 | 3 | 3 | showed potential to induce reverse mutations | –
10 | CC(C)(OCc1cc(F)cc(-c2cc(N)nn2-c2ccc(F)cc2)c1)C(F)(F)F [Metabolite D] | showed potential to induce reverse mutations | – | 20 | 21 | 11 | 6 | 9 | 5 | 6 | 7 | 10 | 15 | 14 | 11 | 9 | 7 | 7 | 3 | showed potential to induce reverse mutations | –
